Data from PMC9400797 (Cell, 2022).
pIC50: −log10 of the molar value.

What was measured:
[1] = molecular target: T1, cannabinoid receptor 1 (CB1) (Homo sapiens, UniProt P21554); test: CB1 radioligand binding assay
Target sequence in this assay (P21554 whole entry): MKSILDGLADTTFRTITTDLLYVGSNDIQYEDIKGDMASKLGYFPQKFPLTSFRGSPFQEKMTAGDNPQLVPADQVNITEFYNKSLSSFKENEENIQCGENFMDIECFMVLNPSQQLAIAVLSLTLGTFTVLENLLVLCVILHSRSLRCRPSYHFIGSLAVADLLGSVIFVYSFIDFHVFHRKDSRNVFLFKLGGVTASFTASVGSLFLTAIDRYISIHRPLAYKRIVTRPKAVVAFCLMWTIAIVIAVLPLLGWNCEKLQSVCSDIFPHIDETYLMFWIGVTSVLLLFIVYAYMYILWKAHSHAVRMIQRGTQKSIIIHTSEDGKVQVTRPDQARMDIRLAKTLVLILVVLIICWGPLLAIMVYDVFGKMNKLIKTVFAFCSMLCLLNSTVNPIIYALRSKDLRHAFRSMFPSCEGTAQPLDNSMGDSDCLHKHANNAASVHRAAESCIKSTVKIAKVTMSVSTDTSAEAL

[2] = molecular target: T1, cannabinoid receptor 1 (CB1); test: GTPase-Glo GTP turnover assay with purified CB1 and Gi1, […] ligand; assay type: biochemical
Target sequence in this assay (P21554 whole entry): as above
Target sequence in this assay (P63096 2-354 partner): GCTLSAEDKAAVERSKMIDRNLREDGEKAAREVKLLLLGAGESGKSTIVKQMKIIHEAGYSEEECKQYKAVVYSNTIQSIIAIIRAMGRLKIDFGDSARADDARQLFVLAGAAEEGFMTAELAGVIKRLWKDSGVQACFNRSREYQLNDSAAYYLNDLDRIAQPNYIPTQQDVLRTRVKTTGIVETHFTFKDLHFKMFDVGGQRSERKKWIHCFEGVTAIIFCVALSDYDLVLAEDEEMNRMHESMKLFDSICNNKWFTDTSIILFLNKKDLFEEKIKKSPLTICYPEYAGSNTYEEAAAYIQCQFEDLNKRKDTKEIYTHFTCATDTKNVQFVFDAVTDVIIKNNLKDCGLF

Molecule | pIC50 [1] | GTPase-Glo GTP turnover assay with purified CB1 and Gi1, 20 uM ligand [2]
BODIPY517/547-genistein | 6.43 | 
C[C@H](NC(=O)C(C)(C)Oc1ccc(C(F)(F)F)cn1)[C@@H](Cc1ccc(Cl)cc1)c1cccc(C#N)c1 [taranabant] |  | GTPase-Glo assay reveals rimonabant and taranabant to decrease GTP turnover compared with Apo
